Here are results for one molecule from patent US20200277649A1, “BROAD SPECTRUM DETECTION OF DNA DAMAGE BY REPAIR ASSISTED DAMAGE DETECTION (RADD)” (University of South Alabama, priority 2017, published 2020).

In this test the test system is CHO-K1 cells. The test can be described thus: RADD detection of BrdU incorporation into genomic DNA. Format: cell-based, Chinese hamster. To be noted: CHO-K1 cells sensitized 24 h, versus basal levels, FIG. 5A. For orientation: Incorporation of labelled thymidine or its analogues reports DNA synthesis.

Molecules are shown by their SMILES.

Turning to `O=c1[nH]c(=O)n([C@H]2C[C@H](O)[C@@H](CO)O2)cc1Br` [BrdU, bromodeoxyuridine], the “RADD mean fluorescence intensity of the nucleus (DNA lesions)” value is given as “increased levels of DNA lesions”.
